{
  "source": "paper PMC8815272",
  "about": "(The Journal of Supercritical Fluids, 2022)",
  "key": {"[1]": {"experiment": "Solubility of favipiravir in supercritical CO2", "format": "physicochemical"}, "[2]": {"format": "physicochemical", "conditions": "binary system favipiravir-SC-CO2, from model"}, "[3]": {"conditions": "high permeability, low water solubility; cited from earlier work"}},
  "data": [
    {"smiles": "NC(=O)c1nc(F)c[nH]c1=O", "note": "[Favipiravir]", "values": [
      {"measurement": "y2 × 10^4 (Mole Fraction)", "setting": "[1]; SC-CO2, 308 K, 12 MPa, density 768.42 kg/m^3", "result": 0.53, "unit": "mole fraction × 10^4"},
      {"measurement": "y2 × 10^4 (Mole Fraction)", "setting": "[1]; SC-CO2, 308 K, 15 MPa, density 816.06 kg/m^3", "result": 0.87, "unit": "mole fraction × 10^4"},
      {"measurement": "y2 × 10^4 (Mole Fraction)", "setting": "[1]; SC-CO2, 308 K, 18 MPa, density 848.87 kg/m^3", "result": 1.44, "unit": "mole fraction × 10^4"},
      {"measurement": "y2 × 10^4 (Mole Fraction)", "setting": "[1]; SC-CO2, 308 K, 21 MPa, density 874.40 kg/m^3", "result": 2.31, "unit": "mole fraction × 10^4"},
      {"measurement": "y2 × 10^4 (Mole Fraction)", "setting": "[1]; SC-CO2, 308 K, 24 MPa, density 895.54 kg/m^3", "result": 3.42, "unit": "mole fraction × 10^4"},
      {"measurement": "y2 × 10^4 (Mole Fraction)", "setting": "[1]; SC-CO2, 308 K, 27 MPa, density 913.69 kg/m^3", "result": 4.09, "unit": "mole fraction × 10^4"},
      {"measurement": "y2 × 10^4 (Mole Fraction)", "setting": "[1]; SC-CO2, 308 K, 30 MPa, density 929.68 kg/m^3", "result": 5.13, "unit": "mole fraction × 10^4"},
      {"measurement": "y2 × 10^4 (Mole Fraction)", "setting": "[1]; SC-CO2, 318 K, 12 MPa, density 659.73 kg/m^3", "result": 0.37, "unit": "mole fraction × 10^4"},
      {"measurement": "y2 × 10^4 (Mole Fraction)", "setting": "[1]; SC-CO2, 318 K, 15 MPa, density 743.17 kg/m^3", "result": 0.80, "unit": "mole fraction × 10^4"},
      {"measurement": "y2 × 10^4 (Mole Fraction)", "setting": "[1]; SC-CO2, 318 K, 18 MPa, density 790.18 kg/m^3", "result": 1.30, "unit": "mole fraction × 10^4"},
      {"measurement": "y2 × 10^4 (Mole Fraction)", "setting": "[1]; SC-CO2, 318 K, 21 MPa, density 823.70 kg/m^3", "result": 2.72, "unit": "mole fraction × 10^4"},
      {"measurement": "y2 × 10^4 (Mole Fraction)", "setting": "[1]; SC-CO2, 318 K, 24 MPa, density 850.10 kg/m^3", "result": 4.29, "unit": "mole fraction × 10^4"},
      {"measurement": "y2 × 10^4 (Mole Fraction)", "setting": "[1]; SC-CO2, 318 K, 27 MPa, density 872.04 kg/m^3", "result": 5.41, "unit": "mole fraction × 10^4"},
      {"measurement": "y2 × 10^4 (Mole Fraction)", "setting": "[1]; SC-CO2, 318 K, 30 MPa, density 890.92 kg/m^3", "result": 6.48, "unit": "mole fraction × 10^4"},
      {"measurement": "y2 × 10^4 (Mole Fraction)", "setting": "[1]; SC-CO2, 328 K, 12 MPa, density 506.85 kg/m^3", "result": 0.08, "unit": "mole fraction × 10^4"},
      {"measurement": "y2 × 10^4 (Mole Fraction)", "setting": "[1]; SC-CO2, 328 K, 15 MPa, density 654.94 kg/m^3", "result": 0.60, "unit": "mole fraction × 10^4"},
      {"measurement": "y2 × 10^4 (Mole Fraction)", "setting": "[1]; SC-CO2, 328 K, 18 MPa, density 724.13 kg/m^3", "result": 1.39, "unit": "mole fraction × 10^4"},
      {"measurement": "y2 × 10^4 (Mole Fraction)", "setting": "[1]; SC-CO2, 328 K, 21 MPa, density 768.74 kg/m^3", "result": 3.21, "unit": "mole fraction × 10^4"},
      {"measurement": "y2 × 10^4 (Mole Fraction)", "setting": "[1]; SC-CO2, 328 K, 24 MPa, density 801.92 kg/m^3", "result": 4.75, "unit": "mole fraction × 10^4"},
      {"measurement": "y2 × 10^4 (Mole Fraction)", "setting": "[1]; SC-CO2, 328 K, 27 MPa, density 828.51 kg/m^3", "result": 6.58, "unit": "mole fraction × 10^4"},
      {"measurement": "y2 × 10^4 (Mole Fraction)", "setting": "[1]; SC-CO2, 328 K, 30 MPa, density 850.83 kg/m^3", "result": 7.65, "unit": "mole fraction × 10^4"},
      {"measurement": "y2 × 10^4 (Mole Fraction)", "setting": "[1]; SC-CO2, 338 K, 12 MPa, density 384.17 kg/m^3", "result": 0.03, "unit": "mole fraction × 10^4"},
      {"measurement": "y2 × 10^4 (Mole Fraction)", "setting": "[1]; SC-CO2, 338 K, 15 MPa, density 555.23 kg/m^3", "result": 0.37, "unit": "mole fraction × 10^4"},
      {"measurement": "y2 × 10^4 (Mole Fraction)", "setting": "[1]; SC-CO2, 338 K, 18 MPa, density 651.18 kg/m^3", "result": 1.32, "unit": "mole fraction × 10^4"},
      {"measurement": "y2 × 10^4 (Mole Fraction)", "setting": "[1]; SC-CO2, 338 K, 21 MPa, density 709.69 kg/m^3", "result": 3.92, "unit": "mole fraction × 10^4"},
      {"measurement": "y2 × 10^4 (Mole Fraction)", "setting": "[1]; SC-CO2, 338 K, 24 MPa, density 751.17 kg/m^3", "result": 5.6, "unit": "mole fraction × 10^4"},
      {"measurement": "y2 × 10^4 (Mole Fraction)", "setting": "[1]; SC-CO2, 338 K, 27 MPa, density 783.29 kg/m^3", "result": 7.57, "unit": "mole fraction × 10^4"},
      {"measurement": "y2 × 10^4 (Mole Fraction)", "setting": "[1]; SC-CO2, 338 K, 30 MPa, density 809.58 kg/m^3", "result": 9.05, "unit": "mole fraction × 10^4"},
      {"measurement": "total heat (ΔHtotal)", "setting": "[2]", "result": 16.75, "unit": "kcal/mol"},
      {"measurement": "vaporization heat (ΔHvap)", "setting": "[2]", "result": 21.54, "unit": "kcal/mol"},
      {"measurement": "class in the Biopharmaceutics Classification System (BCS)", "setting": "[3]", "result": "class II"}
    ]}
  ]
}
